The source of these data is ChEMBL document CHEMBL4020733, “Approaches towards the development of chimeric DPP4/ACE inhibitors for treating metabolic syndrome” (Bioorg Med Chem Lett, 2017).

One data set concerns the target Dipeptidyl peptidase 4 (Homo sapiens, UniProt P27487). Put plainly: Inhibition of human plasma DPP4.
The nature of data set [1]: Plasma protein binding in human. It counts as ADME, cell-free. To be noted: read-out: PPB (converted).
A short description of data set [2]: Plasma protein binding in mouse. To be noted: read-out: PPB (converted). The data set is classed as ADME, cell-free.
A short description of data set [3]: Plasma protein binding in rat. To be noted: read-out: PPB (converted). It counts as ADME, cell-free.
Data set [4] can be described thus: Inhibition of APP (unknown origin). Also on record: species or system Homo sapiens.
For data set [5], the target named is Angiotensin-converting enzyme (Homo sapiens, UniProt P12821). Put plainly: Inhibition of human plasma ACE.
Another data set concerns the target Neprilysin (Homo sapiens, UniProt P08473). In words: Inhibition of NEP (unknown origin).
The target of a further data set is Aminopeptidase N (Homo sapiens, UniProt P15144). Put plainly: Inhibition of APN (unknown origin).

SMILES strings stand for the structures.

Sequence of Dipeptidyl peptidase 4 (P27487 whole entry): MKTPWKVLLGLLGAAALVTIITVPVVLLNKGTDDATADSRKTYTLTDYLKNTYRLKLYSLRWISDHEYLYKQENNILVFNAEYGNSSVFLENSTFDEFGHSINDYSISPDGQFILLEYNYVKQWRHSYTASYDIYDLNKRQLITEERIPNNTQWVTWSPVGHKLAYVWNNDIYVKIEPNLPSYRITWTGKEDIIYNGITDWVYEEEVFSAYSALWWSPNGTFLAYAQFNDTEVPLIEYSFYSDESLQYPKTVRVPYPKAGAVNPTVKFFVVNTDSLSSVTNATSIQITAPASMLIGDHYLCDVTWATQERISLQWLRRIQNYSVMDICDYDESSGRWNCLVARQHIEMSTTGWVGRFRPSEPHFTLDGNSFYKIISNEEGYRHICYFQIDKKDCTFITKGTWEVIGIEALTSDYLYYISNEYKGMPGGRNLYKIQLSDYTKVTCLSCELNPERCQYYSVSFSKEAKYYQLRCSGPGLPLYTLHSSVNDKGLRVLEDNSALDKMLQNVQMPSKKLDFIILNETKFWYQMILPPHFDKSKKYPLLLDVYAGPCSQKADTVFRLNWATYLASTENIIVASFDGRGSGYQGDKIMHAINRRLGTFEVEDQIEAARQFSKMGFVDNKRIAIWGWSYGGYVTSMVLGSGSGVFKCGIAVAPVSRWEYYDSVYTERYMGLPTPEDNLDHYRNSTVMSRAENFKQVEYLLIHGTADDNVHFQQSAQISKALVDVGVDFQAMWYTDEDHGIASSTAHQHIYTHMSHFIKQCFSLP
Sequence of Angiotensin-converting enzyme (P12821 whole entry): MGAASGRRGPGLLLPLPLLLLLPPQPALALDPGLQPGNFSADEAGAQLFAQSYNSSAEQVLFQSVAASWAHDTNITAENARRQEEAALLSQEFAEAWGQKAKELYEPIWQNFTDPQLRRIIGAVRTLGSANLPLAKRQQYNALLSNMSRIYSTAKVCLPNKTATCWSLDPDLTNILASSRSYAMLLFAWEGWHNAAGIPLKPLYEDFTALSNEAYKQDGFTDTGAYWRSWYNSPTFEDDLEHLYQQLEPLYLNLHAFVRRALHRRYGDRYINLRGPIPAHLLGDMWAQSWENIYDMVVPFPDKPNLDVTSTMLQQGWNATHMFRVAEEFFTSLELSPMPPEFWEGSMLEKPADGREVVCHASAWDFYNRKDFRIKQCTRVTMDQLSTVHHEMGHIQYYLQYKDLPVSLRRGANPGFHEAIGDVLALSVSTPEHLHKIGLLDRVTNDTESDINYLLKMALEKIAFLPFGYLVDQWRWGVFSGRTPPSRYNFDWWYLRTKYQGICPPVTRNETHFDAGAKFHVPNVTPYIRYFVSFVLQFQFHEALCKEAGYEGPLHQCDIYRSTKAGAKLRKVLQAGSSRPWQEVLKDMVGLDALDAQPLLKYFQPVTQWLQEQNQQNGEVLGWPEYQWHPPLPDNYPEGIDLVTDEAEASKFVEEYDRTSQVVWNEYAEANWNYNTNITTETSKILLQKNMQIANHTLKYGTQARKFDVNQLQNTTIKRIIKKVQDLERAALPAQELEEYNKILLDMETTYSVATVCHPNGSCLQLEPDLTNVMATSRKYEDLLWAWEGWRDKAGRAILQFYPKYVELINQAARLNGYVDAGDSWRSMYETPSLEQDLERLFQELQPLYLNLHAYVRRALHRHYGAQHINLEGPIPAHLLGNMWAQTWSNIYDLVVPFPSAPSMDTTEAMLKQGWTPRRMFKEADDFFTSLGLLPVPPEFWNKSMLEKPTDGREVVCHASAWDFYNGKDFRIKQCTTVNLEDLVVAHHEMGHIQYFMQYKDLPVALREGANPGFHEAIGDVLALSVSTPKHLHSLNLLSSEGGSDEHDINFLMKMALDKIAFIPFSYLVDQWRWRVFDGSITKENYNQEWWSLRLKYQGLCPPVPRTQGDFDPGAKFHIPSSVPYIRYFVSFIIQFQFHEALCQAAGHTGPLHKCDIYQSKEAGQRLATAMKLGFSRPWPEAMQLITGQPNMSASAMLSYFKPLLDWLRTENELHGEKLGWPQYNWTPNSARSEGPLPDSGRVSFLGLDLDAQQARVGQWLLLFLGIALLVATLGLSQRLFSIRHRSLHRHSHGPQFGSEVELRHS
Sequence of Aminopeptidase N (P15144 whole entry): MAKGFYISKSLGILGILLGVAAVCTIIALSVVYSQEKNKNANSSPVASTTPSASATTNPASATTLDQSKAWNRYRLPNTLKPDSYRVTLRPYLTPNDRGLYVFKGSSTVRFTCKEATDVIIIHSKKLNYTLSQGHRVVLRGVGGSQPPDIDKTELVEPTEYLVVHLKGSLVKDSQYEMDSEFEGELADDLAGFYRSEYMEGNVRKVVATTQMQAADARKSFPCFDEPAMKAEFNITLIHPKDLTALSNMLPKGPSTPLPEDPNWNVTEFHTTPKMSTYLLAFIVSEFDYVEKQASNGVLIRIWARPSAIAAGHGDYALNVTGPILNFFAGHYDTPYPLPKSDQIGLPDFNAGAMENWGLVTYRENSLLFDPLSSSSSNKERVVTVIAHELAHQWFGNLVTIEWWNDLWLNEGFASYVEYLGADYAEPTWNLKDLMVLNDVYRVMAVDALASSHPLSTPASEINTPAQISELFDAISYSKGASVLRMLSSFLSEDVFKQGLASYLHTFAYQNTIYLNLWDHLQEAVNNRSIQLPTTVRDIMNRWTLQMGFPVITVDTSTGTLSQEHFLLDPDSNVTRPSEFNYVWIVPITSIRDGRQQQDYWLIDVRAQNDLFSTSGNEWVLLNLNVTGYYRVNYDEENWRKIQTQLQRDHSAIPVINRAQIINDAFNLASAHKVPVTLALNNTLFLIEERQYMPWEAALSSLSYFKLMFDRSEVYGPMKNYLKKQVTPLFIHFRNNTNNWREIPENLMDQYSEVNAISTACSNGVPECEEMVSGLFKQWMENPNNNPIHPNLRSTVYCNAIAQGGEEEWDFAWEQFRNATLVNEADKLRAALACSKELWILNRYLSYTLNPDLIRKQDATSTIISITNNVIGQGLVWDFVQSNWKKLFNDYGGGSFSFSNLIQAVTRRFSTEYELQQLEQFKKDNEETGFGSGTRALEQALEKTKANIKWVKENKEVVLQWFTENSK
Sequence of Neprilysin (P08473 whole entry): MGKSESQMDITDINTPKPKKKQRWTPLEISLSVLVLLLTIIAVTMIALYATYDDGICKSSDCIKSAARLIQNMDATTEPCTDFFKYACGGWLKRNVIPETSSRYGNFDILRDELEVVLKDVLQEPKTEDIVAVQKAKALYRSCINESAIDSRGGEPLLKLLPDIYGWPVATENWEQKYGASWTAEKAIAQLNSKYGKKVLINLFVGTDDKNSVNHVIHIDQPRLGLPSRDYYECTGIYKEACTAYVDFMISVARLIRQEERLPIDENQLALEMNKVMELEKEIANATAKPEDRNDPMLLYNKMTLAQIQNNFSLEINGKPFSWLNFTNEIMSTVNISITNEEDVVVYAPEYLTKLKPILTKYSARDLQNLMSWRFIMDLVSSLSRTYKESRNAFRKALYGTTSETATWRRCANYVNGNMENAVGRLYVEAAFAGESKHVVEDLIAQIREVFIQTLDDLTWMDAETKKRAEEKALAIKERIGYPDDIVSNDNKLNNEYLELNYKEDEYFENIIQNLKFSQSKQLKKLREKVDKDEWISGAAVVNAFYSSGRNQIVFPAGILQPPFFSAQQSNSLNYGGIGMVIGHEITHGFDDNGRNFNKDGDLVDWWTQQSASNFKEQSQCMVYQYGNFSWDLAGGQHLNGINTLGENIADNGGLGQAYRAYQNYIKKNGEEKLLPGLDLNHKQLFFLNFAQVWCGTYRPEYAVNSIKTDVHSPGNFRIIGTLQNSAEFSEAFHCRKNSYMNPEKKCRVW

As usually defined, the IC50 is the midpoint of a concentration-inhibition curve. As to `C[C@H](N[C@@H](CCc1ccccc1)C(=O)O)C(=O)N1CCC[C@H]1C(=O)O` [ENALAPRILAT ANHYDROUS], the concentration for half-maximal inhibition (IC50) against Dipeptidyl peptidase 4 was above 100 µM. Also, the fraction unbound in data set [1] was 0.341; in data set [2], 0.424; in data set [3], 0.456.
Consider `N[C@@H](CC(=O)N1CCn2c(nnc2C(F)(F)F)C1)Cc1cc(F)c(F)cc1F` [SITAGLIPTIN], for which the half-inhibitory concentration (IC50) in data set [4] is above 100 µM; in data set [5] it was 11 µM; against Neprilysin it was above 100 µM; at Aminopeptidase N, above 100 µM. Moreover, the fraction unbound is 0.53 in data set [1], 0.707 in data set [2] and 0.587 in data set [3].
